From US8168651B2, “Protein kinase modulators” (Cylene Pharmaceuticals, Inc., priority 2008, dated 2012)

Legend:
[1] = molecular target: other protein kinases (each individual kinase); assay: Standardized radiometric kinase assays, IC50 over 10 drug concentrations; type: biochemical; details: estimated
[2] = molecular target: each individual kinase of the panel (Homo sapiens, UniProt P05129); assay: Standardized radiometric kinase assays, percentage of activity at 0.5 μM;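 also: Read-out is ³³P-labelled substrate protein phosphorylated by each kinase, captured on filters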
[3] = molecular target: each individual kinase of the panel (Homo sapiens, UniProt P22455); assay: as above
[4] = molecular target: each individual kinase of the panel (Homo sapiens, UniProt P29322); assay: as above
[5] = molecular target: each individual kinase of the panel (Homo sapiens, UniProt P31751); assay: as above
[6] = molecular target: each individual kinase of the panel (Homo sapiens, UniProt P43250); assay: as above
[7] = molecular target: each individual kinase of the panel (Homo sapiens, UniProt P51956); assay: as above
[8] = molecular target: each individual kinase of the panel (Homo sapiens, UniProt P53778); assay: as above
[9] = molecular target: each individual kinase of the panel (Homo sapiens, UniProt P54762); assay: as above
[10] = molecular target: each individual kinase of the panel (Homo sapiens, UniProt Q86UE8); assay: as above
[11] = molecular target: each individual kinase of the panel (Homo sapiens, UniProt Q8TF76); assay: as above
[12] = molecular target: each individual kinase of the panel (Homo sapiens, UniProt Q9BYT3); assay: as above
[13] = molecular target: each individual kinase of the panel (Mus musculus, UniProt P63085); assay: as above
each individual kinase of the panel (Mus musculus, UniProt P63085), sequence (P63085 2-358 limits assumed): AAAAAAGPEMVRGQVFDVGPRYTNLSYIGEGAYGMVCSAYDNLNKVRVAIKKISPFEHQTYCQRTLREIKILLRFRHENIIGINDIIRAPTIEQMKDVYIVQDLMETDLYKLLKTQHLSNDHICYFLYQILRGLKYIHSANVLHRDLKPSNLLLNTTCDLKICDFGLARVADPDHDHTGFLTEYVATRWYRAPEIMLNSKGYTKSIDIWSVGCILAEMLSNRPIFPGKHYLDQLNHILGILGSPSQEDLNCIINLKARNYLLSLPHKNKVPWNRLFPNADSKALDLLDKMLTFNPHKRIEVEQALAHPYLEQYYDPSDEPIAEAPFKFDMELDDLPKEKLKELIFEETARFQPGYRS

each individual kinase of the panel (Homo sapiens, UniProt P22455), sequence (P22455 22-802 limits assumed): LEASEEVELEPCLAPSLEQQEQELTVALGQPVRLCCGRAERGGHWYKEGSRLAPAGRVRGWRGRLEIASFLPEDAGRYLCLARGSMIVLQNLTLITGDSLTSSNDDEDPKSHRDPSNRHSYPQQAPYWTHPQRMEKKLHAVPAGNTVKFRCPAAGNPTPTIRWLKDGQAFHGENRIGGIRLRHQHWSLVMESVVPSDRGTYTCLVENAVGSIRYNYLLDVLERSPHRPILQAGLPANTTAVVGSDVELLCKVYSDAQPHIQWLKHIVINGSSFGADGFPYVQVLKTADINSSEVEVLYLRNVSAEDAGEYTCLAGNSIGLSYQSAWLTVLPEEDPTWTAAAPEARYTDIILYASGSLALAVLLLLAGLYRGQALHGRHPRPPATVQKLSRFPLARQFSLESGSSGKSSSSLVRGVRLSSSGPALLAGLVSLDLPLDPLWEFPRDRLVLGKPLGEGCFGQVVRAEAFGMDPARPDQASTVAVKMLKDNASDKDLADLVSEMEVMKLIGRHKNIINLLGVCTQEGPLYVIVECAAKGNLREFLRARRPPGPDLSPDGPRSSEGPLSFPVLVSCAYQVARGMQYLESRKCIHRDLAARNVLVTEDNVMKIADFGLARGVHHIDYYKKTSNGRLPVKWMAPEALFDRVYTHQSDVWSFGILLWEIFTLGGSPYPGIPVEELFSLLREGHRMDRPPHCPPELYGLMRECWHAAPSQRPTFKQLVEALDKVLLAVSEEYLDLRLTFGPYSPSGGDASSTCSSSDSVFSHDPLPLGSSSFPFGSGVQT
each individual kinase of the panel (Homo sapiens, UniProt P54762), sequence (P54762 18-984 limits assumed): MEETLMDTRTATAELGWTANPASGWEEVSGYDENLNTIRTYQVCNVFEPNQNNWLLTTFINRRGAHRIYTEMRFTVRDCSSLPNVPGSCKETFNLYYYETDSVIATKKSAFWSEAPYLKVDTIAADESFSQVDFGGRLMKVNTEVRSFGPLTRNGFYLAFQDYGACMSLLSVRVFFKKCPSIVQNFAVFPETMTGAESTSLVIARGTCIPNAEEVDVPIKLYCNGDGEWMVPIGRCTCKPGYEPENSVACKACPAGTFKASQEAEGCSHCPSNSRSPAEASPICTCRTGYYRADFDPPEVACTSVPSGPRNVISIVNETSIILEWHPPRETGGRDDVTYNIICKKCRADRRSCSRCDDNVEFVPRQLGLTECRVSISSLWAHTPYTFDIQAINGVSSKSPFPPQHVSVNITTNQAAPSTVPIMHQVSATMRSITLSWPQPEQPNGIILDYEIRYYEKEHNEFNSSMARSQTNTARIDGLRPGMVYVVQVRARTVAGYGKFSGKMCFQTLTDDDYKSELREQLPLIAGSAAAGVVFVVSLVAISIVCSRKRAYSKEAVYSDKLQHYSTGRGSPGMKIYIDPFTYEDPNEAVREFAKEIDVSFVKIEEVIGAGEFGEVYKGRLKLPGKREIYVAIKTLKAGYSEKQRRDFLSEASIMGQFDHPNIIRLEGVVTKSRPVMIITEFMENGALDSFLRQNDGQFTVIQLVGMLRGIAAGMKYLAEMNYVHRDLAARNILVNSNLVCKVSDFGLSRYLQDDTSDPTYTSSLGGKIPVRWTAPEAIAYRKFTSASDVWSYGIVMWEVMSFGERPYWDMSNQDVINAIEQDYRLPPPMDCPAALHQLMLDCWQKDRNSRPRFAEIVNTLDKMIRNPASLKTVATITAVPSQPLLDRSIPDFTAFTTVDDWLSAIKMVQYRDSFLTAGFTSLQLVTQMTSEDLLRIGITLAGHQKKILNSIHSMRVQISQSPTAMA
each individual kinase of the panel (Homo sapiens, UniProt P29322), sequence (P29322 28-1005 limits assumed): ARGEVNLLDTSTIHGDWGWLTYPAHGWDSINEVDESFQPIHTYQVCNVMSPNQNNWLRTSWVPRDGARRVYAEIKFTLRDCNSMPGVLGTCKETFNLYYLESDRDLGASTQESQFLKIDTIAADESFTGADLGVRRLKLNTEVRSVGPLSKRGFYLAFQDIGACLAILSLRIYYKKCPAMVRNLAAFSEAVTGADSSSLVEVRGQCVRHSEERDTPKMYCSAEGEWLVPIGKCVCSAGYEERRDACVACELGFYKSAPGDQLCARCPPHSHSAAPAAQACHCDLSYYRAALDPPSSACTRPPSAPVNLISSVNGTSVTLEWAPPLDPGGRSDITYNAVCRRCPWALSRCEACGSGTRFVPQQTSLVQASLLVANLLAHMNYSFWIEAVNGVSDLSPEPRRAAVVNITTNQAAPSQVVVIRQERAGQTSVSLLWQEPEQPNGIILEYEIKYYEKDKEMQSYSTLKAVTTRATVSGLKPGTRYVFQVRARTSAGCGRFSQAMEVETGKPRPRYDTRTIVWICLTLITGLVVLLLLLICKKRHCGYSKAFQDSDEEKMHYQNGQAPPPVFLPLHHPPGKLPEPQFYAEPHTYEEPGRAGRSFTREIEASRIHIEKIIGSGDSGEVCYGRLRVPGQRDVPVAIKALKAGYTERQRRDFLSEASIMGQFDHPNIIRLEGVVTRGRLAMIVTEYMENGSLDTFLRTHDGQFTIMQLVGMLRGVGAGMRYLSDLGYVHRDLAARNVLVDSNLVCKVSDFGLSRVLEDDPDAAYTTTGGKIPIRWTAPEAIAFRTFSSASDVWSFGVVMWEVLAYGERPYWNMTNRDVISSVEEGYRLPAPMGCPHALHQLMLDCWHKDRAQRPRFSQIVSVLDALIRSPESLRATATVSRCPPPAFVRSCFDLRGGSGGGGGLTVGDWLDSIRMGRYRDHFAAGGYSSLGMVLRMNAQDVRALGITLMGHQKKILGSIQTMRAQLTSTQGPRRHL

IC50 ([1]; Flt3(h)) | IC50 ([1]; Pim-1(h)) | IC50 ([1]; Pim-2(h)) | IC50 ([1]; Pim-3(h)) | IC50 ([1]; Rsk1(h)) | IC50 ([1]; Rsk2(h)) | IC50 ([1]; Rsk3(h)) | IC50 ([1]; Rsk4(h)) | PRKCG percentage of activity [2] | FGFR4 percentage of activity [3] | EPHA8 percentage of activity [4] | AKT2 percentage of activity [5] | GRK6 percentage of activity [6] | NEK3 percentage of activity [7] | p38-gamma percentage of activity [8] | EPHB1 percentage of activity [9] | TLK2 percentage of activity [10] | GSG2 percentage of activity [11] | STK33 percentage of activity [12] | MAPK2(m) percentage of activity [13] | SMILES
104 nM | 1 nM | 6 nM | 86 nM | 41 nM | 72 nM | 73 nM | 37 nM | – | – | – | – | – | – | – | – | – | – | – | – | Clc1ccccc1Nc1nc2c(-c3nnc[nH]3)cccc2c2cnccc12 [A]
– | – | – | – | – | – | – | – | 0% | 14% | −15% | −10% | −2% | −12% | 12% | 1% | 8% | 4% | 0% | −6% | C#Cc1cccc(Nc2nc3cc(C(=O)O)ccc3c3cncnc23)c1 [drawing 1135]
